Laboratory results as given in US20240132461A1, “FLAVONE DEAZA SPERMIDINE ANALOGUES AND THEIR USE TREATING CANCER” (FLORATEK PHARMA S.A., priority 2021, published 2024).

Tests used:
U-87MG = assay: Cell viability assay, brain carcinoma cell line U-87MG; type: cell-based; settings: Homo sapiens; U-87MG brain carcinoma cell line, 72 h, absolute IC50
Experimental: (§1) Antitumor activity of the compounds and doxorubicin as a positive control was assessed by using the CellTiter-Blue Cell Viability Assay (Promega, #G8082) or CellTiter-Glow® Luminescent Cell Viability assay (Promega # G7572) according to the manufacturer's instructions. The compounds were tested at 5 or 6 concentrations in half-log increments (highest concentration 30 μM-100 μM) in duplicate or triplicate well conditions.
Tumor cells were grown at 37° C. in a humidified atmosphere with 5% CO2 in RPMI 1640 or DMEM medium, supplemented with 10% (v/v) fetal calf serum and 50 μg/ml gentamicin for up to 20 passages, and were passaged once or twice weekly. Cells were harvested using TrypLE or PBS buffer containing 1 mM EDTA, and the percentage of viable cells is determined using a CASY Model TT cell counter (OMNI Life Science). Cells were harvested from exponential phase cultures, counted and plated in 96 well flat-bottom microtiter plates at a cell density depending on the cell line's growth rate (4,000-20,000 cells/well depending on the cell line's growth rate, up to 60,000 for hematological cancer cell lines) in RPMI 1640 or DMEM medium supplemented with 10% (v/v) fetal calf serum and 50 μg/ml gentamicin (140 μl/well). Cultures were incubated at 37° C. and 5% CO2 in a humidified atmosphere. After 24 h, 10 μl of test compounds or control medium are added, and left on the cells for another 72 h. Compounds were serially diluted in DMSO, transferred in cell culture medium, and added to the assay plates. The DMSO concentration was kept constant at <0.3% v/v across the assay plate. Viability of cells was quantified by the CellTiter-Blue® cell viability assay (Promega G8081) or CellTiter-Glow® Luminescent Cell Viability assay (Promega # G7572). Fluorescence (FU) was measured by using the EnSpire® multimode plate reader (Perkin Elmer) (excitation λ=570 nm, emission λ=600 nm) or luminescent detection of ATP in viable cells was used as parameter for proliferation. Luminescence was measured with the microplate luminometer (Promega or Perkin Elmer).
Sigmoidal concentration-response curves were fitted to the data points (test-versus-control, T/C values) obtained for each tumor model using 4 parameter non-linear curve fit (Charles River DRS Datawarehouse Software) or with GraphPad prism 5.02 software. IC50 values are reported as absolute IC50 values, being the concentration of test compound at the intersection of the concentration-response curves with T/C=50%

MCF-7 = assay: Cell viability assay, breast carcinoma cell line MCF-7; type: cell-based; settings: Homo sapiens, MCF7; MCF-7 breast carcinoma cell line
Experimental: as §1
(§2) Tumor cells were grown at 37° C. in a humidified atmosphere with 5% CO2 in RPMI 1640 or DMEM medium, supplemented with 10% (v/v) fetal calf serum and 50 μg/ml gentamicin for up to 20 passages, and were passaged once or twice weekly. Cells were harvested using TrypLE or PBS buffer containing 1 mM EDTA, and the percentage of viable cells is determined using a CASY Model TT cell counter (OMNI Life Science). Cells were harvested from exponential phase cultures, counted and plated in 96 well flat-bottom microtiter plates at a cell density depending on the cell line's growth rate (4,000-20,000 cells/well depending on the cell line's growth rate, up to 60,000 for hematological cancer cell lines) in RPMI 1640 or DMEM medium supplemented with 10% (v/v) fetal calf serum and 50 μg/ml gentamicin (140 μl/well). […] Viability of cells was quantified by the CellTiter-Blue® cell viability assay (Promega G8081) or CellTiter-Glow® Luminescent Cell Viability assay (Promega # G7572). […]

BR-05-0014E = assay: PDX cytotoxicity assay, breast PDX BR-05-0014E; type: cell-based
Experimental: (§3) PDX-derived cell cultures were obtained from tumors explanted from mice and isolated by mechanical and enzymatic dissociation. […] Cells were harvested and seeded in 96-wells plates at a density of 1.25 to 5×10^3 cells/well for cytotoxicity assays. Cells were incubated 48 h at 37° C. prior to addition of test molecules and vehicle (DMSO, 0.1%) at desired final concentrations. Cell viability was assessed before drugs' addition (T0) and 5 days after test molecules addition by measuring ATP cell content using CellTiter-Glo® Luminescent Cell Viability Assay (Promega) according to the manufacturer's instructions. Luciferase activity was measured on a luminometer (PerkinElmer® EnVision™). Each concentration of compounds was tested in triplicate.
(§4) Viability was calculated as a percentage of ATP value compared to vehicle treated controls.
(§5) For PDX primary cell cultures, the tumour tissue was washed with PBS containing antibiotic-antimycotic and non-tumour tissue and necrotic tumour tissues were separated. The tumour tissue was transferred to a new dish and cut into 1˜2 mm^3 fragments, resuspended in RPMI-1640 medium and centrifuged at 1,200 rpm for 6 min at room temperature. The pelleted material was resuspended with 15 mL of Tumour Cell Digestion Solution and incubated at 37° C. for 1 hour with agitation. […]

MOLT-16 = assay: Cell viability assay, leukaemia cell line MOLT-16; type: cell-based; settings: Homo sapiens; MOLT-16 leukaemia cell line
Experimental: as §1, §2

SC6 = assay: PDX cytotoxicity assay, small cell lung carcinoma PDX SC6; type: cell-based
Experimental: as §3, §4, §5

LU-01-0025 = assay: PDX cytotoxicity assay, lung carcinoma PDX LU-01-0025; type: cell-based
Experimental: as §3, §4, §5

NAWALMA = assay: Cell viability assay, lymphoma cell line NAWALMA; type: cell-based
Experimental: as §1, §2

DOHH-2 = assay: Cell viability assay, lymphoma cell line DOHH-2; type: cell-based; settings: Homo sapiens; DOHH-2 lymphoma cell line
Experimental: as §1, §2

LY-24-0340 = assay: PDX cytotoxicity assay, lymphoma PDX LY-24-0340; type: cell-based
Experimental: as §3, §4, §5

HN-13-0020 = assay: PDX cytotoxicity assay, head and neck PDX HN-13-0020; type: cell-based
Experimental: as §3, §4, §5

PIM1 = biological target: T1, PIM1 (Homo sapiens, UniProt P11309); assay: KINOMEscan competition binding assay, PIM1
T1 construct: purchased Eurofins (KINOMEscan assay service); host or cells: E. coli BL21-derived (T7 phage) or HEK-293
Text: (§6) The Hill Slope was set to −1.

PIM2 = biological target: T2, PIM2 (Homo sapiens, UniProt Q9P1W9); assay: KINOMEscan competition binding assay, PIM2
T2 construct: purchased Eurofins (KINOMEscan assay service); host or cells: E. coli BL21-derived (T7 phage) or HEK-293
Text: as §6

[1] = In vivo maximum tolerated dose in NOG mice
Experimental: In order to evaluate the general toxicity of selected SND compounds in an animal model, a maximum tolerated dose (MTD) in NOG mice has been undertaken. Three mice per group were treated daily or every other day over 8 days at various doses between 5 mg/kg and 10 mg/kg. Administration of the compounds was i.p. A stock solution of the compounds (40 mg/ml in DMSO) was prepared and frozen at −20° C. in aliquots for each treatment. […] Body weights were measured before each treatment. Mice were further observed for 1 week after the last treatment.

[2] = test system: U87MG human glioblastoma cells; assay: In vivo tumour inhibition of xenograft human glioblastoma U87MG; settings: 10 mg/kg/inj i.p. qod

COc1c(O)ccc2c(=O)cc(-c3ccc(CNCCCCNCCCN)cc3)oc12 [SND164]
IC50 (U-87MG): 5.7 µM
IC50 (MCF-7): 4.3 µM
IC50 (BR-05-0014E): 13.3 µM
IC50 (MOLT-16): 4.36 µM
IC50 (SC6): 3.64 µM
IC50 (LU-01-0025): 5 µM
IC50 (NAWALMA): 2.6 µM
IC50 (DOHH-2): 4.3 µM
IC50 (LY-24-0340): < 0.16 µM
IC50 (HN-13-0020): 2.7 µM
Kd (PIM1): 0.58 µM
Kd (PIM2): 0.63 µM
tolerability at the highest dose administered ([1]; 8-10 mg/kg i.p., daily or every other day over 8 days): well tolerated
MTD at 8 days ([1]; mouse, in vivo, ip, repeated i.p. administration, MTD not reached, read-out: maximum tolerated dose (MTD), estimated): > 10 mg/kg
body weight loss ([2]; U87MG xenograft mice): no significant body weight loss
death during the study ([2]; U87MG xenograft mice): no death
tolerability of the treatment ([2]; U87MG xenograft mice): well tolerated
Optimum T/C, day 26 ([2]; glioblastoma U87MG CDX s.c. in nude mice, 10 injections, ***P < 0.001 vs vehicle): 54***
